Read-outs that look alike come from different tables or passages of the source. Each block holds one compound with its values, some of them ahead of it.
Assays:
Format in all cases: cell-based
[1] = system: ATP receptors present on the cell membrane of COS-7 cells; experiment: Intracellular Ca^2+ level increased by ATP stimulation, COS-7 cells transfected with pSica-5; settings: 1 mM ATP; host cell COS-7 transfected with pSica-5
Method: (§1) pSica-5 was transfected into COS-7 cells or HeLa cells which have been cultured on a 24-well plate, using a transfection reagent (TransIT-LT1 (Mirus)). Then, the cells were cultured for 16 hours, and then the cell culture medium was exchanged with 200 μL of a PBS buffer solution supplemented with coeleterazine, which is the specific substrate, and 2 μM ionomycin. The values of luminescence change obtained thereafter were monitored by a luminescent plate reader (Mithras LB940; Berthold) (FIG. 7(A)). Four minutes after stabilization of the background luminescence, Ca^2+ was added to the cells on the wells at concentrations ranging from 10^−3.5 M to 10^−5.5 M. Thereafter, the changes in the luminescence values were immediately monitored by the above-mentioned luminescence plate reader. Changes in the luminescence values, which were dependent on the concentration of added Ca^2+, were monitored. Based on the values of luminescence fluctuations in this Ca^2+ concentration range, three kinds of calibration curves were produced with respect to the Ca^2+ concentration in the cultured cells. Variances in the luminescence intensity induced by the ATP concentration in COS-7, MCF-7 and HeLa cells, which had been respectively transfected with pSica-5, were measured (FIG. 7(B)). […]

[2] = system: ATP receptors present on the cell membrane of MCF-7 cells; experiment: Intracellular Ca^2+ level increased by ATP stimulation, MCF-7 cells transfected with pSica-5; settings: 1 mM ATP; host cell MCF-7 transfected with pSica-5
Method: as §1

[3] = system: ATP receptor which is an endogenous membrane receptor of COS-7 cells; experiment: ATP concentration-dependent luminescence change in COS-7 cells carrying pSica-5
Method: For example, an ATP receptor which is an endogenous membrane receptor of COS-7 cells, is stimulated by 100 mM ATP, to thereby increase the concentration of Ca^2+. CaM in the probe responds to the elevated Ca^2+ Level, and as a result, the luminescence intensity is reduced. This phenomenon depends on the ATP concentration;
pSica-5 was transfected into COS-7 cells which have been cultured on a 24-well plate, using a transfection reagent (TransIT-LT1 (Mirus)). Then, the cells were cultured for 16 hours, and then the culture medium was exchanged with 200 μL of a mixed solution of a HBSS buffer (containing 1.3 mM Ca^2+) and the substrate. The values of luminescence change obtained thereafter were monitored by a luminescent plate reader (FIG. 5). After about 5 minutes, ATP was added at different concentrations, and changes in the luminescence values obtained thereafter were monitored. […] Meanwhile, no detectable change was recognized in the luminescence values for the buffer solution itself (phosphate buffer saline; PBS).

[4] = target: T1, GR LBD (human glucocorticoid receptor) (Homo sapiens, UniProt P04150); experiment: Ligand sensitivity of living cells transfected with pSimgr; settings: steroid hormone sensitivity (FIG. 9(C))
T1 construct: expressed in transfected cells
T1 sequence (P04150 524-758 limits assumed): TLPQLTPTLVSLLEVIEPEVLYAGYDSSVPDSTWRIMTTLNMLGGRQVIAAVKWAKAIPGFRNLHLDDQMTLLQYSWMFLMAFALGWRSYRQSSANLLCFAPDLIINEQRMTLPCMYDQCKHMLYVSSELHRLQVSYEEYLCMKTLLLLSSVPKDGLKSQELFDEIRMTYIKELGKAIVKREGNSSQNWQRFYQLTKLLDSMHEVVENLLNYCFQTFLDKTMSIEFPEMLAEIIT
Source text: These plasmids were designated as pSimar and pSimgr, respectively.

[5] = target: T2, calmodulin (CaM) (Xenopus laevis, UniProt P0DP33); experiment: Ca^2+ concentration-dependent luminescence intensity in living cells transfected with pSica-5; settings: for EC50: 2 μM ionomycin, PBS, read-out: 50% effective concentration (EC50) based on changes in luminescence intensities
T2 construct: (CaM; 1-150 AA; GenBank/NM001087395); expressed in transfected cells; host or cells: COS-7 or HeLa cells, pSica-5 in pcDNA3.1(+)
Method: PCR amplification was carried out to introduce KpnI and BamHI, which are restriction enzyme sites, into the two termini of a cDNA encoding calmodulin, which is a Xenopus laevis (African clawed frog)-derived Ca^2+ recognition protein (CaM; 1-150 AA; GenBank/NM001087395). On the other hand, as an optimal luminescent enzyme which can be linked to the CaM as a single-molecule-format probe, Gaussia princeps-derived luciferase (GLuc; 1-189 AA; GenBank/AY015993) was used. Five fragment pairs were generated by fragmentizing five sites of the cDNA of GLuc by PCR reaction, and were used in the examination of the optimal partition sites for GLuc (FIG. 3), which will be discussed in Example 2.
pSica-5 was transfected into COS-7 cells or HeLa cells which have been cultured on a 24-well plate, using a transfection reagent (TransIT-LT1 (Mirus)). Then, the cells were cultured for 16 hours, and then the cell culture medium was exchanged with 200 μL of a PBS buffer solution supplemented with coeleterazine, which is the specific substrate, and 2 μM ionomycin. The values of luminescence change obtained thereafter were monitored by a luminescent plate reader (Mithras LB940; Berthold) (FIG. 7(A)). Four minutes after stabilization of the background luminescence, Ca^2+ was added to the cells on the wells at concentrations ranging from 10^−3.5 M to 10^−5.5 M. Thereafter, the changes in the luminescence values were immediately monitored by the above-mentioned luminescence plate reader. Changes in the luminescence values, which were dependent on the concentration of added Ca^2+, were monitored. Based on the values of luminescence fluctuations in this Ca^2+ concentration range, three kinds of calibration curves were produced with respect to the Ca^2+ concentration in the cultured cells.

Structure (SMILES): Nc1ncnc2c1ncn2[C@@H]1O[C@H](COP(=O)(O)OP(=O)(O)OP(=O)(O)O)[C@@H](O)[C@H]1O [ATP]
Measured average of Ca^2+ concentrations (ave) [1]: 37.4 µM
Measured average of Ca^2+ concentrations (ave) [2]: 13 µM
changes in the luminescence values ([3]; COS-7 cells with pSica-5, 1 mM, 100 μM and 10 μM ATP, HBSS buffer containing 1.3 mM Ca^2+): stimulant dose-dependent changes
luminescence intensity ([3]; COS-7 cells, probe with GLuc dissected at site #5, 100 mM ATP (FIG. 5 legend)): reduced

Structure (SMILES): C[C@]12CCC(=O)C=C1CC[C@@H]1[C@@H]2[C@@H](O)C[C@@]2(C)[C@H]1CC[C@]2(O)C(=O)CO [cortisol]
sensitivity of cells transfected with pSimgr [4]: strong sensitivity

EC50 ([5]; COS-7 cells transfected with pSica-5): 25 µM
EC50 ([5]; HeLa cells transfected with pSica-5): 50 µM
dissociation coefficient (Kd) between CaM and Ca^2+ ([5]; HeLa cells, from the luminescence values): 0.63×10^−17 M^4
Structure (SMILES): [Ca+2] [Ca^2+]

From patent US8043827B2, “Single molecule-format real-time bioluminescence imaging probe” (National Institute of Advanced Industrial Science and …, priority 2007, dated 2011)
